# Assay: recombinant UMI read abundance after kanamycin selection (control-corrected) (log10(CPM+1)); higher = more efficient recombination; extreme values may be limits of the assay; sequences stand for … in AGTGCAGAGAAAATCGGCCAGTTTTCTCTGCCTGCAGTCCGCATGCCGTGGGACCCCTTGGGTTCTAACCTGTTGCCTAGATTTATGCAGCGGACTGCCTTTCTCCCAAAGTGATAAACCGG…AGGTTGGTTTCACT; site = the 11-nt donor
# In short: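 Sequencing read counts were converted to CPM, averaged over two replicates and scaled by control-derived factors. Results are given as log10(CPM+1). The reads covered the donor–target junction of recombinant UMIs from a pooled Escherichia coli screen of donor and donor-binding-loop pairs for the IS621 bridge recombinase.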
# 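Note: IS621 bridge recombinase in Escherichia coli cells against a fixed T5 target plasmid.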
row,Sequence,recombinant UMI read abundance (log10)
1,CGTGCAACATGGACCGGTTTTCCCGGTAATCCGTATTTGTT (site CGTGAAACTAA),0
2,CGTGCAACATGGACCGGTTTTCCCGGTAATCCGTATTTGTT (site CGTGCAACTAA),0.0114
3,CGTGCAACATGGACCGGTTTTCCCGGTAATCCGTATTTGTT (site CGTGGAACTAA),0.018
4,CGTGCAACATGGACCGGTTTTCCCGGTAATCCGTATTTGTT (site CGTGTAACTAA),0.00375
5,CGTGGAACATGGACCGGTTTTCCCGGTAATCCGTATTTGAT (site CGTGGAACTAA),0.00774
6,CGTGGAACATGGACCGGTTTTCCCGGTAATCCGTATTTGAT (site CGTGGAACTAC),0
7,CGTGGAACATGGACCGGTTTTCCCGGTAATCCGTATTTGAT (site CGTGGAACTAG),0
8,CGTGGAACATGGACCGGTTTTCCCGGTAATCCGTATTTGAT (site CGTGGAACTAT),2.14
9,CGTGGAACATGGACCGGTTTTCCCGGTAATCCGTATTTGTG (site CGTGGAACTAA),0.0173
10,CGTGGAACATGGACCGGTTTTCCCGGTAATCCGTATTTGTG (site CGTGGAACTCA),1.16
11,CGTGGAACATGGACCGGTTTTCCCGGTAATCCGTATTTGTG (site CGTGGAACTGA),0
12,CGTGGAACATGGACCGGTTTTCCCGGTAATCCGTATTTGTG (site CGTGGAACTTA),1.61
13,CGTGGAACATGGACCGGTTTTCCCGGTAATCCGTATTTGTT (site AGTGGAACTAA),0.101
14,CGTGGAACATGGACCGGTTTTCCCGGTAATCCGTATTTGTT (site CATGGAACTAA),0.0194
15,CGTGGAACATGGACCGGTTTTCCCGGTAATCCGTATTTGTT (site CCTGGAACTAA),0.0032
16,CGTGGAACATGGACCGGTTTTCCCGGTAATCCGTATTTGTT (site CGAGGAACTAA),1.63
17,CGTGGAACATGGACCGGTTTTCCCGGTAATCCGTATTTGTT (site CGCGGAACTAA),0.501
18,CGTGGAACATGGACCGGTTTTCCCGGTAATCCGTATTTGTT (site CGGGGAACTAA),0.00685
19,CGTGGAACATGGACCGGTTTTCCCGGTAATCCGTATTTGTT (site CGTAGAACTAA),1.15
20,CGTGGAACATGGACCGGTTTTCCCGGTAATCCGTATTTGTT (site CGTCGAACTAA),0.0185
21,CGTGGAACATGGACCGGTTTTCCCGGTAATCCGTATTTGTT (site CGTGAAACTAA),0
22,CGTGGAACATGGACCGGTTTTCCCGGTAATCCGTATTTGTT (site CGTGCAACTAA),0.00967
23,CGTGGAACATGGACCGGTTTTCCCGGTAATCCGTATTTGTT (site CGTGGAACTAA),1.72
24,CGTGGAACATGGACCGGTTTTCCCGGTAATCCGTATTTGTT (site CGTGGAACTAC),0.303
25,CGTGGAACATGGACCGGTTTTCCCGGTAATCCGTATTTGTT (site CGTGGAACTAG),0.951

row,Sequence,recombinant UMI read abundance (log10)
1,CGTGGAACATGGACCGGTTTTCCCGGTAATCCGTATTTGTT (site CGTGGAACTAT),0.403
2,CGTGGAACATGGACCGGTTTTCCCGGTAATCCGTATTTGTT (site CGTGGAACTCA),0.251
3,CGTGGAACATGGACCGGTTTTCCCGGTAATCCGTATTTGTT (site CGTGGAACTGA),0.938
4,CGTGGAACATGGACCGGTTTTCCCGGTAATCCGTATTTGTT (site CGTGGAACTTA),0.841
5,CGTGGAACATGGACCGGTTTTCCCGGTAATCCGTATTTGTT (site CGTGGACCTAA),0.071
6,CGTGGAACATGGACCGGTTTTCCCGGTAATCCGTATTTGTT (site CGTGGAGCTAA),0.00766
7,CGTGGAACATGGACCGGTTTTCCCGGTAATCCGTATTTGTT (site CGTGGATCTAA),0.524
8,CGTGGAACATGGACCGGTTTTCCCGGTAATCCGTATTTGTT (site CGTGGCACTAA),0.0304
9,CGTGGAACATGGACCGGTTTTCCCGGTAATCCGTATTTGTT (site CGTGGGACTAA),0.0232
10,CGTGGAACATGGACCGGTTTTCCCGGTAATCCGTATTTGTT (site CGTGGTACTAA),0
11,CGTGGAACATGGACCGGTTTTCCCGGTAATCCGTATTTGTT (site CGTGTAACTAA),0
12,CGTGGAACATGGACCGGTTTTCCCGGTAATCCGTATTTGTT (site CGTTGAACTAA),0
13,CGTGGAACATGGACCGGTTTTCCCGGTAATCCGTATTTGTT (site CTTGGAACTAA),0.0161
14,CGTGGAACATGGACCGGTTTTCCCGGTAATCCGTATTTGTT (site GGTGGAACTAA),0.0165
15,CGTGGAACATGGACCGGTTTTCCCGGTAATCCGTATTTGTT (site TGTGGAACTAA),0.0144
16,CGTGGACCATGGACCGGTTTTCCCGGTAATCCGTATTTGGG (site CGAGGACCTCC),0.0168
17,CGTGGACCATGGACCGGTTTTCCCGGTAATCCGTATTTGGG (site CGCGGACCTCC),0.00423
18,CGTGGACCATGGACCGGTTTTCCCGGTAATCCGTATTTGGG (site CGGGGACCTCC),0.028
19,CGTGGACCATGGACCGGTTTTCCCGGTAATCCGTATTTGGG (site CGTGGACCTCC),0.0154
20,CGTGGGACATGGACCGGTTTTCCCGGTAATCCGTATTTGTT (site CGTGGAACTAA),1.86
21,CGTGGGACATGGACCGGTTTTCCCGGTAATCCGTATTTGTT (site CGTGGCACTAA),0.0102
22,CGTGGGACATGGACCGGTTTTCCCGGTAATCCGTATTTGTT (site CGTGGGACTAA),1.79
23,CGTGGGACATGGACCGGTTTTCCCGGTAATCCGTATTTGTT (site CGTGGTACTAA),0
24,CGTGGTTCATGGACCGGTTTTCCCGGTAATCCGTATTTGCG (site CGTGGTTCTCG),2.1
25,CGTGTAACATGGACCGGTTTTCCCGGTAATCCGTATTTGCG (site CGTGTAACTCG),1.78

row,Sequence,recombinant UMI read abundance (log10)
1,CGTGTCACATGGACCGGTTTTCCCGGTAATCCGTATTTGGT (site CGTGTCACTAC),1.31
2,CGTGTCGCATGGACCGGTTTTCCCGGTAATCCGTATTTGTG (site CGTGTCGCTCA),0.701
3,CGTGTGTCATGGACCGGTTTTCCCGGTAATCCGTATTTGGA (site CGTGTGTCTTC),1.86
4,CGTTAGACATGGACCGGTTTTCCCGGTAATCCGTATTTGCG (site CGTTAGACTCA),0.0494
5,CGTTAGACATGGACCGGTTTTCCCGGTAATCCGTATTTGCG (site CGTTAGACTCC),0.0162
6,CGTTAGACATGGACCGGTTTTCCCGGTAATCCGTATTTGCG (site CGTTAGACTCG),1.85
7,CGTTAGACATGGACCGGTTTTCCCGGTAATCCGTATTTGCG (site CGTTAGACTCT),0.911
8,CGTTAGCCATGGACCGGTTTTCCCGGTAATCCGTATTTGAG (site CGTTAGACTCT),0.00766
9,CGTTAGCCATGGACCGGTTTTCCCGGTAATCCGTATTTGAG (site CGTTAGCCTCT),0.184
10,CGTTAGCCATGGACCGGTTTTCCCGGTAATCCGTATTTGAG (site CGTTAGGCTCT),0.00758
11,CGTTAGCCATGGACCGGTTTTCCCGGTAATCCGTATTTGAG (site CGTTAGTCTCT),0.737
12,CGTTATACATGGACCGGTTTTCCCGGTAATCCGTATTTGAG (site CGTTAAACTCT),0
13,CGTTATACATGGACCGGTTTTCCCGGTAATCCGTATTTGAG (site CGTTACACTCT),0.0313
14,CGTTATACATGGACCGGTTTTCCCGGTAATCCGTATTTGAG (site CGTTAGACTCT),0.0101
15,CGTTATACATGGACCGGTTTTCCCGGTAATCCGTATTTGAG (site CGTTATACTCT),1.25
16,CGTTATCCATGGACCGGTTTTCCCGGTAATCCGTATTTGTC (site CGTTATCCTGA),1.46
17,CGTTCATCATGGACCGGTTTTCCCGGTAATCCGTATTTGCC (site CGATCATCTAG),0
18,CGTTCATCATGGACCGGTTTTCCCGGTAATCCGTATTTGCC (site CGTTCATCTGG),2.32
19,CGTTCATCATGGACCGGTTTTCCCGGTAATCCGTATTTGTG (site CGTTCATCTCA),0.00491
20,CGTTCCCCATGGACCGGTTTTCCCGGTAATCCGTATTTGTG (site CGTTCCCCTCA),0.365
21,CGTTCGACATGGACCGGTTTTCCCGGTAATCCGTATTTGTT (site CGATCGACTAA),0.0104
22,CGTTCGACATGGACCGGTTTTCCCGGTAATCCGTATTTGTT (site CGCTCGACTAA),0.0144
23,CGTTCGACATGGACCGGTTTTCCCGGTAATCCGTATTTGTT (site CGGTCGACTAA),0.0244
24,CGTTCGACATGGACCGGTTTTCCCGGTAATCCGTATTTGTT (site CGTTCGACTAA),0.0172
25,CGTTCGTCATGGACCGGTTTTCCCGGTAATCCGTATTTGCT (site CGATCATCTAG),0

# — the supplement of paper PMC11208160
